The record followed here is patent US12070458B2, “Therapeutic agent composition and method of use, for treatment of mild congnitive impairment, depression, and psychological disorders” (priority 2018, dated 2024).

Test [1] deals with cerebellar microexplants (P4). In words: Glutamate induced neuronal death in cerebellar microexplants (P4). Type of test: cell-based, Wistar rats. To be noted: for neuron number compared to the normal control group: a further lower dose; for recovery from glutamate-induced neurotoxicity: lower doses 10-100 nM, simultaneously with glutamate. The protocol:
Cerebellar Cell Culture Preparing and Coating of Cover Slips
Ten coverslips were placed into a large petri dish and washed in 70% alcohol for 5 minutes, then washed with Millipore H2O. The coverslips were air dried, then coated with Poly-D-Lysine (1 mg/ml stock solution in PBS, 90-100 μl) and incubated for 2 hours at 34° C.
Postnatal day 4 Wistar rats were used for the study. Rats were placed in ice for 1 minute, the heads were decapitated and the cerebellum removed on ice. Cerebellum tissue was placed in 1 ml of 0.65% glucose supplemented PBS (10 μl 65% stock D (+)glucose/1 ml PBS) in a large petri dish, chopped up into smaller sections and triturate with a 1 ml insulin syringe via a 23 G (0.4 mm) needle, and then squirted back into the glucose solution on the large petri dish. The tissue was sieved through (125 μm pore size gaze) and centrifuged (2 minutes at 60 g) two times for a medium exchange into serum-free BSA-supplemented START V medium (Biochrom). The second centrifugation step was done with 1 ml of START V medium. The microexplants were reconstituted into 500 μl of START V medium and put on ice.
Cultivation and Fixation of Cerebellar Cells
Two hours after PDL-coating, the slides were washed with Millipore H2O and air dried. Each slide was placed into a small 35 mm petri dish and 40 μl of START V/cell suspension added. The tissue was incubated for 2 hours at 34° C. (settlement period). START V-medium (1 ml) was then added to the petri dish and cultivated at 34° C./5% CO2/100% humidity for 48 hours. Cells were rinsed in PBS and then fixed for 2-3 minutes in increasing concentrations of paraformaldehyde (500 μl of 0.4% PFA was applied; then 1.2% PFA; then 3% PFA and finally 4% PFA—all fixation solutions contain 0.2% glutardialdehyde). Finally, the microexplants were rinsed in PBS.
10 μl of toxin (L-glutamate-100 mM in Millipore water) was applied simultaneously with cPG (from bachem, 10 mM stock prepared in PBS and diluted to final concentrations between 1-100 nM) for Study 1. A delay in administration of cPG at 6 hours after glutamate treatment was performed for Study 2.
10 μl of toxin (L-glutamate-100 mM in Millipore water) was applied simultaneously with cyclic(tri(prolylglycyl)) (which was obtained from NeuroBiomed, San Jose, California), 10 mM stock prepared in PBS and diluted to final concentrations between 1-100 nM) for Study 1. A delay in administration of cyclic(tri(prolylglycyl)) at 6 hours after glutamate treatment was performed for Study 2.
10 μl of toxin (L-glutamate-100 mM in Millipore water) was applied simultaneously with cyclic Glycyl-2-Methyl Proline (obtained NeuroBiomed, San Jose California), 10 mM stock prepared in PBS and diluted to final concentrations between 1-100 nM) for Study 1. A delay in administration of cPG at 6 hours after glutamate treatment was performed for Study 2.

For test [2], the system named is BrdU positive cells in sub ventricular zone and dentate gyrus. In words: Neurogenesis by BrdU co-administration (sub ventricular zone, dentate gyrus). Type of test: in vivo, Wistar rats. To be noted: 10 mg/kg i.p. in 0.1% RSA twice daily for 7 days, compared to sham injected. As for the experimental part:
Male Wistar rats weighing about 250-270 g (not newborn) were used. All animal experiments were conducted in agreement with national and international guidelines. Care was taken to minimize suffering for the animals. Animals were allowed to acclimatize for 1 week before start of the studies. Animals were housed under standardized conditions with normal tight-dark periods and in groups of five animals per cage. Animals had access to food and water ad libitum during the studies.
Three neurogenesis modulating agents, cPG, c(PG)3 and cGMeP were separately administered intraperitoneally to Male Wistar rats (N=10) at 10 mg/kg in Rat Serum Albumin (RSA). The negative control (n=12), the vehicle group was injected with saline (in 0.1% RSA). Bromodeoxyuridine (Brd1J; 50 mg/kg) was co-administrated together with the compounds. The intraperitoneally injections were given with a 12 hour interval for 7 days. Animals were perfused on day 8. The rats were kept at 12 hours light/dark regime. In perfusion, animals were perfused transcranially with 50 ml of ice cold phosphate buffered saline (PBS) and then 100 ml of 4% paraformaldehyde in PBS. Brains were fixed after removal in 4% paraformaldehyde in PBS for 24 hours at 4° C. at least 3 days before sectioning. The procedures of transcranial infusion consist the following steps: […]

Setting [3] is: 1-100 nM given 6 hours after the glutamate treatment, compared to vehicle.
Setting [4] is: administered simultaneously with glutamate, 1-100 nM, glutamate alone 85% loss of neurons.

The structures appear in SMILES notation. Residues, ends and D or L forms follow the SMILES beside them.

On to `O=C1NCC(=O)N2CCC[C@H]2C(=O)NCC(=O)N2CCC[C@H]2C(=O)NCC(=O)N2CCCC12` (stereo partly drawn) [c(PG)3, cyclic (glycyl-L-prolylglycyl-L-prolylglycyl-L-prolyl)] (HELM PEPTIDE1{G.P.G.P.G.[O=C(C1CCCN1[*:1])[*:2]]}$PEPTIDE1,PEPTIDE1,1:R1-6:R2$$$V2.0), for which the “improvement, recovery from glutamate induced neurotoxicity” value in test [1] (setting [3]) is “approximately 43%”. Further, in test [1], the “neuron number compared to the normal control group” value was “significant increase” and the “recovery from glutamate-induced neurotoxicity” value is given as “significant recovery”. Also, the “reduction of glutamate induced neuronal death” value in test [1] (setting [4]) is on record as 57%. Further, the “number of newborn cells (BrdU positive) in sub ventricular zone and dentate gyrus” value in test [2] was “significant increase”.

As for `O=C1NCC(=O)N2CCC[C@@H]12` [cPG, cyclic Prolyl Glycine], the “recovery from glutamate induced neurotoxicity” value in test [1] (setting [3]) was “significantly recovery”. In test [1], the “neuron number compared to the normal control group” value is recorded as “significant increase” and the “recovery from glutamate-induced neurotoxicity” value is “significant recovery”. Further, the “glutamate induced neuronal death” value in test [1] (setting [4]) was “significantly reduced”. Moreover, in test [2], the “number of newborn cells (BrdU positive) in sub ventricular zone and dentate gyrus” value is “significant increase”.
